The subject of this assay is angiotensin II receptor. As to the kind of experiment: Angiotensin II receptor binding assay ([3H] angiotensin II displacement). The following applies: 60 minutes at 25° C., pH 7.2, test concentration not given. The method, then: The inventive compounds were tested to measure their angiotensin II receptor binding capacity as follows.
1. Angiotensin II receptor binding assay
In accordance with the procedure disclosed in Chiu, A. T. et al., Eur. J. Pharm., 157, 13 ([…])t a ligand marked with a radioistope was reacted with an angiotensin II receptor and the reactant was filtered with a glass fiber to remove unreacted ligand. After washing the filter, the amount of the remaining isotope was measured to determine the binding activity of the ligand, as described below in detail.
(i) Isolation of angiotensin II receptor
Sprague-Dawley rats and Wistar rats of 250 to 350 g (from The Korea Research Institute of Chemical Technology) were tested and the test procedures were carried out at 4° C., unless otherwise specified. Adrenal gland was separated from the Sprague-Dawley rats (liver, in the case of Wistar rats) into cortex and medulla. The separated adrenal cortex and medulla were washed with a sucrose buffer solution (0.2M sucrose, 1 mM EDTA, 10 mM Tris, pH 7.2) and homogenized in the same buffer solution by using a Teflon pestle and a Brinkmann homogenizer. The homogenates were centrifuged at 3,000× g for 10 minutes to remove precipitates and further centrifuged at 12,000× g for 13 minutes. The final supernatants were centrifuged at 102,000× g for 1 hour to obtain precipitates, which were washed with a Tris buffer solution (50 mM Tris, 5 mM MgCl2, pH 7.2) and re-centrifuged at 102,000× g for 1 hour. The resulting precipitates were immediately processed at the following step or stored at -70° C.
The precipitates were suspended in a Tris buffer solution. The amount of protein was determined by using a Bio-Rad DC protein analyzing kit and the protein concentration was adjusted to the amounts of: 0.2 to 0.3 mg/ml (Sprague-Dawley rat: adrenal cortex), 1.5 to 2.0 mg/ml (Sprague-Dawley rat: adrenal medulla), and 1.5 to 2.0 mg/ml (Wistar rat: liver). To the suspension, bovine serum albumin (BSA) was added to a concentration of 0.25 wt % and the resultant was immediately processed at the following step or stored at -70° C.
(ii) Measurement of angiotensin II receptor binding capacity
50 μl (based on ligand) of [^3 H] angiotensin II (NEN, NET-446) and 10 μl of each of the test compounds with various concentrations were added to the buffer solution (50 mM Tris (pH 7.2), 5 mM MgCl2, 0.25% BSA) to adjust the final volume to be 0.5 ml. Losartan (Dup 753), which is disclosed in EP No. 400,974 issued to Merck, was used as the control compound. 100 μl of the receptor suspension was added thereto and the resulting solution was reacted for 60 minutes while stirring in a water bath at 25° C. 3 ml of cold buffer solution for analysis was added to cease the reaction. The isotope which was bound to the receptor was isolated from the resultant by using Brandel Cell Harvester System with Whatman glass fiber GF/C. After washing the filter, the radioactivity of the filter was determined by using a liquid scintillation counter. Binding inhibition (%) of the test compound was calculated as follows:
Binding Inhibition (%)=[{(T-B)-(S-B)}/(T-B)]×100
wherein T is the radioactivity (cpm) of the reaction product untreated with the test compound, S is the radioactivity (cpm) of the reaction product treated with the test compound, and B is the radioactivity (cpm) of blank test.
Take `CCCCc1nc(Cl)c(C(=O)c2cccc(C=NO)[n+]2[O-])n1Cc1ccc(-c2ccccc2-c2nn[nH]n2)cc1` [Compound 38, {2-butyl-5-chloro-3-[(2'-(1H-tetrazol-5-yl)biphenyl-4-yl)methyl]-3H-imidazol-4-yl}[6-(hydroxyimino)methyl-1-oxypyridin-2-yl]methanone]: the “Binding Inhibition (%)” value came out at 95.4%. The result for `CCCCc1nc(Cl)c(C(=O)c2ccc(C=O)cn2)n1Cc1ccc(-c2ccccc2-c2nn[nH]n2)cc1` [Compound 27, {2-butyl-5-chloro-3-[(2'-(1H-tetrazol-5-yl1)biphenyl-4-yl)methyl]-3H-imidazol-4-yl}(5-formylpyridin-2-yl)methanone] reads 81.3%. In the case of `CCCCc1nc(Cl)c(C(=O)c2ccc(C(OC)OC)cn2)n1Cc1ccc(-c2ccccc2-c2nnn[nH]2)cc1` [Compound 26, {2-butyl-5-chloro-3-[(2'-(1H-tetrazol-5-yl)biphenyl-4-yl)methyl]-3H-imidazol-4-yl}[5-(dimethoxymethyl)pyridin-2-yl]methanone] it was 94.0%; in that of `CCCCc1nc(Cl)c(C(=O)c2cccc(CN(CC)CC)[n+]2[O-])n1Cc1ccc(-c2ccccc2-c2nn[nH]n2)cc1` [Compound 10, {2-butyl-5-chloro-3-[(2'-(1H-tetrazol-5-yl)biphenyl-4-yl)methyl]-3H-imidazol-4-yl}[6-(diethylamino)methyl-1-oxypyridin-2-yl]methanone], 91.1%. The result for `CCCCc1nc(Cl)c(C(O)c2cccc(CN(CC)CC)[n+]2[O-])n1Cc1ccc(-c2ccccc2-c2nn[nH]n2)cc1` (stereo not shown) [Compound 9, {2-butyl-5-chloro-3-[(2'-(1H-tetrazol-5-yl)biphenyl-4-yl)methyl]-3H-imidazol-4-yl}[6-(diethylamino)methyl-1-oxypyridin-2-yl]methanol] reads 30.5%; that for `CCCCc1nc(Cl)c(C(=O)c2cccc(C(C)=O)[n+]2[O-])n1Cc1ccc(-c2ccccc2-c2nn[nH]n2)cc1` [Compound 20, {2-butyl-5-chloro-3-[(2'-(1H-tetrazol-5-yl)biphenyl-4-yl)methyl]-3H-imidazol-4-yl}(6-acetyl-1-oxypyridin-2-yl)methanone], 89.0%; that for `CCCCc1nc(Cl)c(C(O)c2ccc(C(OC)OC)cn2)n1Cc1ccc(-c2ccccc2-c2nnn[nH]2)cc1` (stereo not shown) [Compound 25, {2-butyl-5-chloro-3-[(2'-(1H-tetrazol-5-yl)biphenyl-4-yl)methyl]-3H-imidazol-4-yl}[5-(dimethoxymethyl)pyridin-2-yl]methanol], 87.8%. Regarding `CCCCc1nc(Cl)c(C(=O)c2ccc(CCl)cn2)n1Cc1ccc(-c2ccccc2-c2nnn[nH]2)cc1` [Compound 29, {2-butyl-5-chloro-3-[(2'-(1H-tetrazol-5-yl)biphenyl-4-yl)methyl]-3H-imidazol-4-yl}[5-(chloromethyl)pyridin-2-yl]methanone], the “Binding Inhibition (%)” value stood at 83.6%. In the case of `CCCCc1nc(Cl)c(C(O)c2cccc(Br)[n+]2[O-])n1Cc1ccc(-c2ccccc2-c2nn[nH]n2)cc1` (stereo not shown) [Compound 16] it was 62.9%. With `CCCCc1nc(Cl)c(C(=O)c2cccc(C=O)n2)n1Cc1ccc(-c2ccccc2-c2nnn[nH]2)cc1` [Compound 7, {2-butyl-5-chloro-3-[(2'-(1H-tetrazol-5-yl)biphenyl-4-yl)methyl]-3H-imidazol-4-yl}(6-formylpyridin-2-yl)methanone], the “Binding Inhibition (%)” value is given as 79.8%. In the case of `CCCCc1nc(Cl)c(C(=O)c2ccc(C[N+]([O-])(CC)CC)c[n+]2[O-])n1Cc1ccc(-c2ccccc2-c2nn[nH]n2)cc1` [Compound 32, {2-butyl-5-chloro-3-[(2'-(1H-tetrazol-5-yl)biphenyl-4-yl)methyl]-3H-imidazol-4-yl}[5-((diethyl)(oxy)amino)methyl-1-oxypyridin-2-yl]methanone] it was 98.8%. `CCCCc1nc(Cl)c(C(O)c2cccc(Br)n2)n1Cc1ccc(-c2ccccc2-c2nnn[nH]2)cc1` (stereo not shown) [Compound 18, {2-butyl-5-chloro-3-[(2'-(1H-tetrazol-5-yl)biphenyl-4-yl)methyl]-3H-imidazol-4-yl}(6-bromopyridin-2-yl)methanol]: the “Binding Inhibition (%)” value was 57.1%. On to `CCCCc1nc(Cl)c(C(O)c2ccc(CO)c[n+]2[O-])n1Cc1ccc(-c2ccccc2-c2nn[nH]n2)cc1` (stereo not shown) [Compound 24, {2-butyl-5-chloro-3-[(2'-(1H-tetrazol-5-yl1)biphenyl1-4-yl)methyl1]-3H-imidazol-4-yl}(5-hydroxymethyl-1-oxypyridin-2-yl)methanol], for which the “Binding Inhibition (%)” value came to 76.1%. In the case of `CCCCc1nc(Cl)c(C(O)c2cccc(C(=O)N(CC)CC)[n+]2[O-])n1Cc1ccc(-c2ccccc2-c2nn[nH]n2)cc1` (stereo not shown) [Compound 36, {2-butyl-5-chloro-3-[(2'-(1H-tetrazol-5-yl)biphenyl-4-yl)methyl]-3H-imidazol-4-yl}[6-(diethylamino)carbonyl-1-oxypyridin-2-yl]methanol] it was 75.4%; in that of `CCCCc1nc(Cl)c(CO)n1Cc1ccc(-c2ccccc2-c2nn[nH]n2)cc1` [Dup 753, Losartan, reference compound], 48.0%; in that of `CCCCc1nc(Cl)c(C(=O)c2cccc(C[N+]([O-])(CC)CC)[n+]2[O-])n1Cc1ccc(-c2ccccc2-c2nn[nH]n2)cc1` [Compound 11, {2-butyl-5-chloro-3-[(2'-(1H-tetrazol-5-yl)biphenyl-4-yl)methyl]-3H-imidazol-4-yl}[6-((diethyl)(oxy)amino)methyl-1-oxypyridin-2-yl]methanone], 99.9%. In the case of `CCCCc1nc(Cl)c(C(=O)c2cccc(Br)n2)n1Cc1ccc(-c2ccccc2-c2nnn[nH]2)cc1` [Compound 17, {2-butyl-5-chloro-3-[(2'-(1H-tetrazol-5-yl)biphenyl-4-yl)methyl]-3H-imidazol-4-yl}(6-bromopyridin-2-yl)methanone] it was 50.3%; in that of `CCCCc1nc(Cl)c(C(O)c2ccc(CO)cn2)n1Cc1ccc(-c2ccccc2-c2nnn[nH]2)cc1` (stereo not shown) [Compound 30, {2-butyl-5-chloro-3-[(2'-(1H-tetrazol-5-yl)biphenyl-4-yl)methyl]-3H-imidazol-4-yl}[5-(hydroxymethyl)pyridin-2-yl]methanol], 90.2%; in that of `CCCCc1nc(Cl)c(C(O)c2ccc(CN(CC)CC)cn2)n1Cc1ccc(-c2ccccc2-c2nnn[nH]2)cc1` (stereo not shown) [Compound 33, {2-butyl-5-chloro-3-[(2'-(1H-tetrazol-5-yl)biphenyl-4-yl)methyl]-3H-imidazol-4-yl}[5-((diethylamino)methyl)pyridin-2-yl]methanol], 73.3%.

The values above are taken from patent publication US5665738A, “Imidazole derivatives and processes for the preparation thereof” (Korea Research Institute of Chemical Technology, priority 1994, dated 1997).
